In patent US6903183B1, “Compositions and methods for regulation of steroidogenesis” (Texas Tech University Health Services Center, priority 1996, dated 2005):
Entries after “also recorded” stand apart in the source; their conditions may differ. No end group written: not given here.

Assays:
[1] = tested on: bovine zona glomerulosa cells; test: Cholesterol content of submitochondrial fractions (cholesterol oxidase assay); type: cell-based
Method: (§1) Freshly-prepared bovine zona glomerulosa cells were stimulated with Ang II (10 nM) or submitted to a cytosolic Ca^2+ clamp (600 nM) for 2 h. Mitochondria were isolated and subfractionated into outer membranes (OM), inner membranes (IM) and contact sites (CS). Cholesterol content was determined by the cholesterol oxidase assay.
as §1, with “gomerulosa” for “glomerulosa”, “h, as described in Example 9.” for “h.”, “assay, also as described in Example 9.” for “assay.”

[2] = tested on: StAR protein; test: Western blot of StAR protein in mitochondria of glomerulosa cells; type: cell-based, bovine
[3] = tested on: StAR protein; test: Immunoblot of StAR protein expression in H295R cells; type: cell-based, human; conditions: for amount of StAR protein: treatment of H295R cells with agonist
Method: (§2) FIG. 4. Effect of KN93 on agonist-stimulated aldosterone production and StAR protein expression in H295R cells. […] The medium aldosterone content was determined by R.I.A. and normalized to the tissue culture well protein content. Data points represent the mean ±SE of values from six separate culture wells expressed as fold increase over basal. Significant inhibition relative to the control response is indicated at *p<0.01. StAR protein was examined using equivalent amounts of total cellular lysate (30 μg) by immunoblot analysis as described in the Methods. Results are representative of those obtained from three separate experiments.
For each treatment, cells were solubilized as described above and an equivalent amount of protein (30 μg) for each sample were separated by SDS-PAGE (12.5%) and then electrophoretically transferred to polyvinylidene difluoride membrane as previously described (Clark et al (1994) J. Biol. Chem., 269:2831-322, reference specifically incorporated herein by reference). Immunoblot analysis was as described (Id) using a rabbit sera containing the specific StAR antipeptide antibody (see ANTIBODIES infra) as the primary label and a donkey anti-rabbit IgG conjugated with horseradish peroxidase (Amersham, Arlington Heights, Ill.). The specific signal was detected by chemiluminescence assays using the Renaissance kit from DuPont NEN (Boston, Mass.) and the StAR specific bands were quantitated by BioImage Visage 2000 computer-assisted image analysis (BioImage, Ann Arbor, Mich.). Different exposure times were used to insure linearity.

[4] = tested on: StAR protein; test: Synthesis of StAR protein in MA-10 cells after CRH, dbcAMP or hCG; type: cell-based, mouse; conditions: for time of maximal response following stimulation: CRH at 1 μM
[5] = tested on: H295R cells; test: Agonist-stimulated aldosterone production (steroidogenesis) in H295R cells; type: cell-based, human
Method: as §2
The human adrenocortical carcinoma-derived cell line (H295R) was used. This cell line secretes multiple steroids, including aldosterone and cortisol. […]
Subcultured cells were maintained 24 hours in DME/F12 medium containing 0.2% calf serum, 0.01% BSA and antibiotics (low serum). […] The aldosterone and cortisol contents of medium recovered from each well were determined with aldosterone and cortisol standards prepared in low-serum medium by commercial aldosterone and cortisol radioimmunoassays (Diagnostic System Laboratories; Webster, Tex.). Results of aldosterone and cortisol assays were normalized to cellular protein per well, expressed as pmol per mg cell protein and transformed to percentage of the control response where indicated. […]

[6] = tested on: StAR protein; test: Immunoblot analysis of 30 kDa (StAR) protein in MA-10 cells; type: cell-based, mouse
Method: Immunoblot Analysis. Mitochondria were isolated from either MA-10 or COS 1 cells transfected with either pCMV or pCMV+30 kDa cDNA 48 hours post-transfection. For experiments in which progesterone production was measured (as described above), cells were solubilized directly in the well with 0.1% SDS, the cell homogenates were collected and combined from all 8 wells, and the protein was precipitated using trichloracetic acid. The protein was solubilized in sample buffer (25 mM Tris/Cl, pH 6.8, 1% SDS, 5% β-mercaptoethanol, 1 mM EDTA, 4% glycerol, and 0.01% bromophenol blue) and loaded onto a 12.5% SDS-PAGE minigel (Mini-Protein II System, Bio-Rad, Richmond, Calif.). […] The membrane was washed as before, and the specific signal was detected by chemiluminescence using the Renaissance kit from Du Pont-NEN.
In order to verify that the cDNA was being expressed in eukaryotic cells, COS 1 cells were used to transfect the pCMV+30 kDa cDNA since the pCMV plasmid can be replicated in these cells and approximately 80% of the cells are transfected with plasmid DNA based on the expression of reporter protein. Forty-eight hours post-transfection, mitochondria were isolated and the 30 kDa protein expression was determined by immunoblot analysis. […] In addition, a 36.5 kDa protein was detected in the COS 1 cells which would be consistent with the precursor protein. […]

[7] = tested on: StAR mRNA; test: Northern blot analysis of StAR mRNA in MA-10 cells; type: cell-based, mouse
Method: MA-10 cells were stimulated with Bt2cAMP and StAR mRNA levels were determined by Northern blot analysis. Within 1 hour of Bt2cAMP stimulation, two major transcripts of approximately 3400 nt and 1600 nt, and one minor transcript of 2700 nt, were detected. […] Subsequent to the marked mRNA induction, the greatest induction (10x) in StAR protein was detected after 4 hours of Bt2cAMP stimulation by immunoblot analysis. Comparatively lower levels of StAR could be detected after 1 hour of hormone stimulation with maximal levels accumulated within 8 hours.

[8] = biological target: protein complex purified from MA-10 cell mitochondrial membranes; test: competition against 35S-labeled StAR signal peptide on liposomes carrying the complex, gel filtration
[9] = tested on: Y-1 adrenal tumor cells; test: Overexpression of DAX-1 in Y-1 adrenal tumor cells; type: cell-based, mouse
[10] = tested on: mitochondria isolated from MA-10 mouse Leydig tumor cells; test: In vitro reconstituted system: pregnenolone synthesis by isolated mitochondria; type: biochemical; conditions: protein added to isolated mitochondria
Excerpt: Rat heart mitochondria were used for the import assay with bovine StAR, indicating import of StAR is not dependent upon factors specific to mitochondria isolated from steroidogenic tissues. The ability of StAR to increase steroid production has also been confirmed in an in vitro reconstituted system.

C[C@@H]1C[C@@H]([C@H](O)CC2CC(=O)NC(=O)C2)C(=O)[C@@H](C)C1 [Cycloheximide]
Ca2+-activated cholesterol transfer to IM [1]: significantly reduced
effect on Ang II increase of StAR in IM [2]: prevented

[Val^5]-Angiotensin II acetate (DRVYVHPF; also: acetate salt; UniProt P01019 25-32, looked up, variant I5V) [Ang II]
OM cholesterol ([1]; Ang II 10 nM, 2 h): No significant changes
cholesterol in contact sites (CS) ([1]; Ang II 10 nM, 2 h, n=3): 172±28 % of controls
StAR protein ([2]; Ang II stimulated glomerulosa cells, n=2): 157 % of controls
StAR in IM ([2]; Ang II stimulation): increased
amount of StAR protein [3]: increased; also recorded: elevated

CRH: Corticotropin-Releasing Hormone (SEEPPISLDLTFHLLREVLEMARAEQLAQQAHSNRKLMEII; ends and bridges not checked; UniProt P06850 154-194, looked up)
concentration of maximal response (StAR synthesis) [4]: 1 µM
synthesis of the StAR protein [4]: dose-dependent increase
time of maximal response following stimulation [4]: 4 h
level of StAR synthesis versus maximal doses of CRH or hCG alone ([4]; in the presence of hCG): higher level

[Cl-].[K+] [K^+, potassium chloride]
amount of StAR protein [3]: increased; also recorded: elevated

COC(=O)C1=C(C)NC(C)=C([N+](=O)[O-])C1c1ccccc1C(F)(F)F (stereo not drawn) [Bay K, (=)-Bay K 8644]
amount of StAR protein [3]: increased; also recorded: elevated

[Ca+2] [Ca^2+]
cholesterol content of OM ([1]; cytosolic Ca2+ clamp 600 nM, 2 h, n=5): 54±24 % of controls
StAR protein in mitochondrial extracts ([2]; Ca2+ stimulation, cycloheximide-sensitive, n=5): 141±14 % of controls

COc1ccc(S(=O)(=O)N(CCO)c2ccccc2CN(C)CC=Cc2ccc(Cl)cc2)cc1 [KN93, 2-[N-(2-hydroxyethyl)-N-(4-methoxybenzenesulfonyl)]amino-N-(4-chlorocinnamyl)-N-methylbenzylamine]
aldosterone production ([5]; KN93 3 μM): potently inhibited
block of steroidogenesis ([5]; KN93 between 1 and 3 μM): 60 to 80%
induction of StAR protein by Ang II, K+, or Bay K ([3]; KN93 between 1 and 3 μM): did not affect
agonist-induction of StAR protein expression ([3]; co-treatment with KN93 3 μM): not affected

CCCC(=O)Nc1ncnc2c1ncn2[C@@H]1O[C@@H]2COP(=O)(O)O[C@H]2[C@H]1OC(=O)CCC [Bt2cAMP, N^6, 2′-O-dibutyryladenosine-3′:5′-cyclic monophosphate]
time to maximal accumulated StAR protein levels [6]: ≤ 8 h
StAR protein induction ([6]; after 4 hours of stimulation): 10 x
time to maximal StAR mRNA levels [7]: 6 h
StAR mRNA induction ([7]; after 2 hours of stimulation): 20 x
concentration of maximal response (StAR synthesis) [4]: 1 µM
synthesis of the StAR protein [4]: dose-dependent increase
time of maximal response following stimulation [4]: 6 h

MFLATFKLCAGSSYRHMRNMKGLRHQ [StAR signal peptide (unlabeled, commercially synthesized)]
reduction of total radioactivity in the liposome fraction [8]: 65%

B1: DAX-1: transcription repressor, unusual member of the nuclear hormone receptor superfamily, overexpressed in Y-1 cells (protein, UniProt Q61066 1-472, looked up)
Nuclear receptor subfamily 0 …: MAGEDHPWQGSILYNLLMSAKQKHASQEEREVRLGAQCWGCACGAQPVLGGERLSGGQARSLLYRCCFCGENHPRQGGILYSMLTNARQPSVATQAPRARFGAPCWGCACGSAEPLVGREGLPAGQAPSLLYRCCFCGEEHPRQGSILYSLLTSAQQTHVSREAPEAHRRGEWWQLSYCTQSVGGPEGLQSTQAMAFLYRSYVCGEEQPQQISVASGTPVSADQTPATPQEQPRAPWWDASPGVQRLITLKDPQVVCEAASAGLLKTLRFVKYLPCFQILPLDQQLVLVRSCWAPLLMLELAQDHLHFEMMEIPETNTTQEMLTTRRQETEGPEPAEPQATEQPQMVSAEAGHLLPAAAVQAIKSFFFKCWSLNIDTKEYAYLKGTVLFNPDLPGLQCVKYIEGLQWRTQQILTEHIRMMQREYQIRSAELNSALFLLRFINSDVVTELFFRPIIGAVSMDDMMLEMLCAKL
StAR mRNA and protein synthesis [9]: inhibition
steroid synthesis [9]: complete inhibition

B2: adrenodoxin: another mitochondrial imported protein (protein, UniProt P10109 61-184, looked up)
Adrenodoxin, mitochondrial: SSSEDKITVHFINRDGETLTTKGKVGDSLLDVVVENNLDIDGFGACEGTLACSTCHLIFEDHIYEKLDAITDEENDMLDLAYGLTDRSRLGCQICLTKSMDNMTVRVPETVADARQSIDVGKTS
pregnenolone synthesis [10]: not affected
